Legend:
[1] = target: T1, ALK (Homo sapiens, UniProt Q96SW2+Q9HC35+Q9UM73); test: Western blot degradation of ALK (H2228 Cell); format: cell-based; details: Table D5
T1 construct: evaluate the effects of the compounds of the present disclosure on the expression of target proteins in cells; endogenous in cells; host or cells: H2228
Procedure: Conventional Western blot assay was performed to evaluate the effects of the compounds of the present disclosure on the expression of target proteins in cells.
(1) Cell Seeding and Protein Harvesting: The selected cells were processed according to the cell seeding procedure and protein harvesting procedure in Table III-2. Table III-2 Cell Seeding and Protein Harvesting Procedures
(2) To the collected supernatant, 5X SDS sample loading buffer was added, followed by denaturation at 95°C for 5 minutes. The denatured samples were then separated by SDS-PAGE electrophoresis on a polyacrylamide gel. Proteins were transferred to a nitrocellulose membrane (0.45 µm NC membrane), blocked with blocking buffer at room temperature for 1 hour, and subjected to antibody incubation and development procedures according to the antibody manufacturer's instructions (Cell Signaling Technology).
Half-Maximal Degradation Concentration value (the drug concentration required for degrading proteins by 50%, abbreviated as DC50) reads method: comparing the grayscale values of Western blot bands from drug-treated samples with those from blank DMSO-treated controls, and identifying the drug concentration range at which the grayscale value is half that of the DMSO-treated control bands.
DC50 values can be calculated using ImageJ software to measure grayscale values of Western blot bands from drug-treated samples. The concentration-response curve is fitted to estimate the drug concentration corresponding to half the grayscale value.
Target protein remaining (%) refers to the percentage of target protein remaining in hPBMC cells after treatment with protein degrader compounds.
Calculation method for target protein remaining (%): Use ImageJ software to measure grayscale values of Western blot bands from drug (protein degrader)-treated samples. The grayscale value of drug-treated bands is divided by that of internal control protein bands, and the resulting quotient is normalized to obtain the relative percentage of remaining target protein after protein degrader treatment.
Target protein degradation rate (%) = 100% - target protein remaining (%).

[2] = tested on: SR; test: CCK-8 proliferation, SR; format: cell-based, Human; details: Homo sapiens; Table B6, compounds designed based on the ALK inhibitors; SR cells; read-out: Inhibitory activity (IC50, nM) on tumor cell proliferation, SR
How it was run: (§1)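 CCK-8 viability readout; IC50 from growth-inhibition curve fitting. Cells plated, dosed 24h later with a 10-point series, top 10µM, 5-fold steps. Culture at 37°C, 5% CO2.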

[3] = tested on: MCF7; test: CCK-8 proliferation, MCF7 (MCF-7); format: cell-based; details: Homo sapiens, MCF7; Table B6, compounds designed based on the ALK inhibitors; MCF-7 cells; read-out: Inhibitory activity (IC50, nM) on tumor cell proliferation, MCF-7
How it was run: as §1

[4] = tested on: H2228; test: CCK-8 proliferation, NCI-H2228 (H2228); format: cell-based; details: Homo sapiens, NCI-H2228; Table B6, compounds designed based on the ALK inhibitors; H2228 cells; read-out: Inhibitory activity (IC50, nM) on tumor cell proliferation, H2228
How it was run: as §1

[5] = tested on: H1975; test: CCK-8 proliferation, NCI-H1975 (H1975); format: cell-based, Human; details: Homo sapiens, NCI-H1975; Table B6, compounds designed based on the ALK inhibitors; H1975 cells; read-out: Inhibitory activity (IC50, nM) on tumor cell proliferation, H1975
How it was run: as §1

T1 sequence (Q9HC35+Q9UM73 fused): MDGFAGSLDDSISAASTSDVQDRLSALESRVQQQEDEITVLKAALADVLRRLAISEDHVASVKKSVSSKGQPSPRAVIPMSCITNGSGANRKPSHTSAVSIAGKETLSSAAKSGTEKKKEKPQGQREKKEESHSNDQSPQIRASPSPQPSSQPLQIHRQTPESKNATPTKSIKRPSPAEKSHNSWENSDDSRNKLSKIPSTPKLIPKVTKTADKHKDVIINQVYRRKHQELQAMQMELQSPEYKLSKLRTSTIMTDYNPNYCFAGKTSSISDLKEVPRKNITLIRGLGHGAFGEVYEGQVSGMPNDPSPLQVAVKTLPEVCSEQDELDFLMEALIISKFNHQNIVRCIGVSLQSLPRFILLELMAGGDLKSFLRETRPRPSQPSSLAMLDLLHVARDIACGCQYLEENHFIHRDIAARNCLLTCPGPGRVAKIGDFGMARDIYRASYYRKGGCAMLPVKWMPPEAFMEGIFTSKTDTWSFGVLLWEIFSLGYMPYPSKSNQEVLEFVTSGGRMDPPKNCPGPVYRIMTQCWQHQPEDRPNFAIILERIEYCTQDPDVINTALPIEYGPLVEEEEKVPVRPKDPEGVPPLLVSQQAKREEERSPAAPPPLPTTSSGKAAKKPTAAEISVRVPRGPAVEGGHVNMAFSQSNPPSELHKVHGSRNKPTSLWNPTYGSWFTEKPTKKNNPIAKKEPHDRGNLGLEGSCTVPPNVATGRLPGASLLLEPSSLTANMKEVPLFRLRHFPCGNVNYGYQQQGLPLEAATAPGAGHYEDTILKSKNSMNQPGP
T1 sequence (Q96SW2 whole entry): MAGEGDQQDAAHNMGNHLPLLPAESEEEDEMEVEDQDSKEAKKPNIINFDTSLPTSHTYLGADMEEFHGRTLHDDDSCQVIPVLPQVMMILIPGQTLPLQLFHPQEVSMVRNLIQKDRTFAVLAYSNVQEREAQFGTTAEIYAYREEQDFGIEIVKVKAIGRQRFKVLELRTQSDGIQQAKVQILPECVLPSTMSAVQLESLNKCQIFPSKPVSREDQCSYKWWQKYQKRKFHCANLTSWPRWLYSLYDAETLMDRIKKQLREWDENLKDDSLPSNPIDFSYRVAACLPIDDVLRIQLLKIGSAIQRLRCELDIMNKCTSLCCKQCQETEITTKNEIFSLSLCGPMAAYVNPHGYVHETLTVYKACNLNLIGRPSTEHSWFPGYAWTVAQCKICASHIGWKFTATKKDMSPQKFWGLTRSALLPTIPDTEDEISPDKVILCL
T1 sequence (Q16531 whole entry partner): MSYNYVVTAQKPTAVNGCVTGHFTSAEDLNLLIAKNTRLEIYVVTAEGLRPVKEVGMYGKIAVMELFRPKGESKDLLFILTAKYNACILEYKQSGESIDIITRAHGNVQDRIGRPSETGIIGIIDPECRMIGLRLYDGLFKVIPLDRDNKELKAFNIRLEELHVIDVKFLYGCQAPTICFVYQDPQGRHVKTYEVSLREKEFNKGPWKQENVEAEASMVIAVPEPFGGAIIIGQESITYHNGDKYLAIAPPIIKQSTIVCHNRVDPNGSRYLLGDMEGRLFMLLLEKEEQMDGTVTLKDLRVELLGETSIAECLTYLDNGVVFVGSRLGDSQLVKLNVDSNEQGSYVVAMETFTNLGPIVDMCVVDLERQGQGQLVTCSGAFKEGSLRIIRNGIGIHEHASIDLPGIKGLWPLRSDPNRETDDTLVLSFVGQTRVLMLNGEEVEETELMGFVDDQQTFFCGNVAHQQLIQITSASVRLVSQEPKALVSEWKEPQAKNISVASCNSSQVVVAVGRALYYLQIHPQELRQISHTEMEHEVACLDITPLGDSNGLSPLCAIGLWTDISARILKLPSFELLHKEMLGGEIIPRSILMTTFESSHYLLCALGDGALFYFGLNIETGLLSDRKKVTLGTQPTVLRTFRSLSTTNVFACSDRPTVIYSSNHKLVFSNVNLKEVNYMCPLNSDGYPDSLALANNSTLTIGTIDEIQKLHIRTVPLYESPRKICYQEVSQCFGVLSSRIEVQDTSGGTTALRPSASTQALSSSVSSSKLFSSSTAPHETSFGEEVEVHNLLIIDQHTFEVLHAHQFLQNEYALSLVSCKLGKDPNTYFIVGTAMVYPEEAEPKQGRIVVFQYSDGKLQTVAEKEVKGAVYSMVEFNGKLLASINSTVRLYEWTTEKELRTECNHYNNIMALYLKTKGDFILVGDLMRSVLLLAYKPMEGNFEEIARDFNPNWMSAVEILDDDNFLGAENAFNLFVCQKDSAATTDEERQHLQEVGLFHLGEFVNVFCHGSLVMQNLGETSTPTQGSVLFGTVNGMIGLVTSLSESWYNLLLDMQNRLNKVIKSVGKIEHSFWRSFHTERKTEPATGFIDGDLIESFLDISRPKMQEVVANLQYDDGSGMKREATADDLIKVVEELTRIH

| SMILES | IC50 [3] | IC50 [4] | IC50 [5] | Degradation of substrate protein ALK (substrate protein remaining %) [1] | IC50 [2] |
| --- | --- | --- | --- | --- | --- |
| COc1cc(N2CCC(N(C)Cc3ccnc(C4CCC(=O)NC4=O)c3)CC2)ccc1Nc1ncc(Cl)c(Nc2ccccc2P(C)(C)=O)n1 (stereo not shown) [GT-07697, 3-(4-(((1-(4-((5-chloro-4-((2-(dimethylphosphoryl)phenyl)amino)pyrimidin-2-yl)amino)-3-methoxyphenyl)piperidin-4-yl)(methyl)amino)methyl)pyridin-2-yl)piperidine-2,6-dione] | 500 to 1000 nM | 100 to 500 nM |  | A (A is defined as 0% ≤ substrate protein remaining % ≤ 80%) | 10 to 50 nM |
| COc1cc(N2CCC(N3CCN(Cc4cncc(C5CCC(=O)NC5=O)c4)CC3)CC2)ccc1Nc1ncc(Cl)c(Nc2ccccc2P(C)(C)=O)n1 (stereo not shown) [GT-07614, 3-(5-((4-(1-(4-((5-chloro-4-((2-(dimethylphosphoryl)phenyl)amino)pyrimidin-2-yl)amino)-3-methoxyphenyl)piperidin-4-yl)piperazin-1-yl)methyl)pyridin-3-yl)piperidine-2,6-dione] | 500 to 1000 nM | 100 to 500 nM | 500 to 1000 nM | A (A is defined as 0% ≤ substrate protein remaining % ≤ 80%) | 1 to 10 nM |
| COc1cc(N2CCN(Cc3cccc(N4CCC(=O)NC4=O)c3)CC2)ccc1Nc1ncc(Cl)c(Nc2ccccc2P(C)(C)=O)n1 [GT-07348, 1-(3-((4-(4-((5-chloro-4-((2-(dimethylphosphoryl)phenyl)amino)pyrimidin-2-yl)amino)-3-methoxyphenyl)piperazin-1-yl)methyl)phenyl)dihydropyr imidine-2,4(1H,3H)-dione] |  | 100 to 500 nM | 500 to 1000 nM | A (A is defined as 0% ≤ substrate protein remaining % ≤ 80%) | 10 to 50 nM |
| CCc1cc2c(cc1N1CCN(Cc3ccc(N4CCC(=O)NC4=O)cc3)CC1)C(C)(C)c1[nH]c3cc(C#N)ccc3c1C2=O [GT-07324, 8-(4-(4-(2,4-dioxotetrahydropyrimidin-1(2H)-yl)benzyl)piperazin-1-yl)-9-ethyl-6,6-dimethyl-11-oxo-6,11-dihydro-5H-benzo[b]carbazole-3-carbonitrile] | 500 to 1000 nM | 100 to 500 nM |  | A (A is defined as 0% ≤ substrate protein remaining % ≤ 80%) | 10 to 50 nM |
| COc1cc(N2CCN(Cc3ccc(N4CCC(=O)NC4=O)cc3F)CC2)ccc1Nc1ncc(Cl)c(Nc2ccccc2P(C)(C)=O)n1 [GT-07347, 1-(4-((4-(4-((5-chloro-4-((2-(dimethylphosphoryl)phenyl)amino)pyrimidin-2-yl)amino)-3-methoxyphenyl)piperazin-1-yl)methyl)-3-fluorophenyl)dihydropyrimidine-2,4(1H,3H)-dione] |  | 100 to 500 nM | 100 to 500 nM | A (A is defined as 0% ≤ substrate protein remaining % ≤ 80%) | 10 to 50 nM |
| Cc1cc(Nc2ncc(Cl)c(Nc3ccccc3S(=O)(=O)C(C)C)n2)c(OC(C)C)cc1C1CCN(Cc2ccc(N3CCC(=O)NC3=O)cc2)CC1 [GT-07592, 1-(4-((4-(4-((5-chloro-4-((2-(isopropylsulfonyl)phenyl)amino)pyrimidin-2-yl)amino)-5-isopropoxy-2-methylphenyl)piperidin-1-yl)methyl)phenyl)dihydropyr imidine-2,4(1H,3H)-dione] | 500 to 1000 nM | 100 to 500 nM |  | A (A is defined as 0% ≤ substrate protein remaining % ≤ 80%) | 10 to 50 nM |
| COc1cc(N2CCN(Cc3ccc(N4CCC(=O)NC4=O)cn3)CC2)ccc1Nc1ncc(Cl)c(Nc2ccccc2P(C)(C)=O)n1 [GT-07349, 1-(6-((4-(4-((5-chloro-4-((2-(dimethylphosphoryl)phenyl)amino)pyrimidin-2-yl)amino)-3-methoxyphenyl)piperazin-1-yl)methyl)pyridin-3-yl)dihydropyrimidine-2,4(1H,3H)-dione] |  | 500 to 1000 nM | 500 to 1000 nM | A (A is defined as 0% ≤ substrate protein remaining % ≤ 80%) | 50 to 100 nM |
| Cc1cc(Nc2ncc(Cl)c(Nc3ccccc3S(=O)(=O)C(C)C)n2)c(OC(C)C)cc1C1CCN(Cc2ccnc(N3CCC(=O)NC3=O)c2)CC1 [GT-07596, 1-(4-((4-(4-((5-chloro-4-((2-(isopropylsulfonyl)phenyl)amino)pyrimidin-2-yl)amino)-5-isopropoxy-2-methylphenyl)piperidin-1-yl)methyl)pyridin-2-yl)dihydropyrimidine-2,4(1H,3H)-dione] | 100 to 500 nM | 100 to 500 nM |  | A (A is defined as 0% ≤ substrate protein remaining % ≤ 80%) | 10 to 50 nM |

The next lines start with results.

| IC50 [3] | IC50 [4] | IC50 [5] | SMILES | Degradation of substrate protein ALK (substrate protein remaining %) [1] | IC50 [2] |
| --- | --- | --- | --- | --- | --- |
|  | 10 to 50 nM | 500 to 1000 nM | COc1cc(N2CCC(N3CCN(Cc4cc(C5CCC(=O)NC5=O)cnc4F)CC3)CC2)ccc1Nc1ncc(Cl)c(Nc2ccccc2P(C)(C)=O)n1 (stereo not shown) [GT-07611, 3-(5-((4-(1-(4-((5-chloro-4-((2-(dimethylphosphoryl)phenyl)amino)pyrimidin-2-yl)amino)-3-methoxyphenyl)piperidin-4-yl)piperazin-1-yl)methyl)-6-fluoropyridin-3-yl)piperidine-2,6-dione] | A (A is defined as 0% ≤ substrate protein remaining % ≤ 80%) | 1 to 10 nM |
| 100 to 500 nM | 50 to 100 nM | 100 to 500 nM | COc1cc(N2CCC(N(C)Cc3ccc(N4CCC(=O)NC4=O)nc3)CC2)ccc1Nc1ncc(Cl)c(Nc2ccccc2P(C)(C)=O)n1 [GT-07691, 1-(5-(((1-(4-((5-chloro-4-((2-(dimethylphosphoryl)phenyl)amino)pyrimidin-2-yl)amino)-3-methoxyphenyl)piperidin-4-yl)(methyl)amino)methyl)pyridin-2-yl)dihydropyrimidine-2,4(1H,3H)-dione] | A (A is defined as 0% ≤ substrate protein remaining % ≤ 80%) | 1 to 10 nM |
| 100 to 500 nM | 50 to 100 nM | 500 to 1000 nM | COc1cc(N2CCC(N(C)Cc3ccc(N4CCC(=O)NC4=O)cn3)CC2)ccc1Nc1ncc(Cl)c(Nc2ccccc2P(C)(C)=O)n1 [GT-07617, 1-(6-(((1-(4-((5-chloro-4-((2-(dimethylphosphoryl)phenyl)amino)pyrimidin-2-yl)amino)-3-methoxyphenyl)piperidin-4-yl)(methyl)amino)methyl)pyridin-3-yl)dihydropyrimidine-2,4(1H,3H)-dione] | A (A is defined as 0% ≤ substrate protein remaining % ≤ 80%) | 10 to 50 nM |
| 500 to 1000 nM | 50 to 100 nM |  | CCc1cc2c(cc1N1CCC(N3CCN(Cc4ccc(N5CCC(=O)NC5=O)nc4)CC3)CC1)C(C)(C)c1[nH]c3cc(C#N)ccc3c1C2=O [GT-07312, 8-(4-(4-((6-(2,4-dioxotetrahydropyrimidin-1(2H)-yl)pyridin-3-yl)methyl)piperazin-1-yl)piperidin-1-yl)-9-ethyl-6,6-dimethyl-11-oxo-6,11-dihydro-5H-benzo[b]carbazole-3-carbonitrile] | A (A is defined as 0% ≤ substrate protein remaining % ≤ 80%) | 1 to 10 nM |
| 500 to 1000 nM | 100 to 500 nM |  | CCc1cc2c(cc1N1CCN(Cc3ccc(N4CCC(=O)NC4=O)nc3)CC1)C(C)(C)c1[nH]c3cc(C#N)ccc3c1C2=O [GT-07327, 8-(4-((6-(2,4-dioxotetrahydropyrimidin-1(2H)-yl)pyridin-3-yl)methyl)piperazin-1-yl)-9-ethyl-6,6-dimethyl-11-oxo-6,11-dihydro-5H-benzo[b]carbazole-3-carbonitrile] | A (A is defined as 0% ≤ substrate protein remaining % ≤ 80%) | 1 to 10 nM |

Reference: EP4678638A1, “NEW E3 UBIQUITIN LIGASE LIGAND, PROTEIN DEGRADATION AGENT AND USE THEREOF” (priority 2023, dated 2024)
